Where two headings read alike, the source gives them in different places.
How the values were obtained:
[1] = system: TCF/LEF luciferase Reporter in DLD1 cells; test: TCF reporter assay (DLD1 TCF/LEF luciferase reporter, Bright-Glo); format: cell-based; conditions: read-out: DLD1 4% Abs IC50
Summary of the method: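 DLD1 cells stably carrying a TCF/LEF luciferase reporter were plated at 5000 cells/well in RPMI + 4% FBS and treated overnight with a 1:2 compound dilution series. Bright-Glo luminescence read on day 3; viability by CellTiter-Glo. Absolute IC50 determined.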

[2] = target: T1, beta-catenin/TCF4 engagement (Homo sapiens, UniProt P35222); test: Nano-BRET target engagement assay (B-cat-Halo & TCF4-Luc in HEK293 cells); format: cell-based; conditions: read-out: NanoBRET Abs IC50
T1 construct: expressed in transfected cells; host or cells: HEK293
T1 sequence (P35222 1-781): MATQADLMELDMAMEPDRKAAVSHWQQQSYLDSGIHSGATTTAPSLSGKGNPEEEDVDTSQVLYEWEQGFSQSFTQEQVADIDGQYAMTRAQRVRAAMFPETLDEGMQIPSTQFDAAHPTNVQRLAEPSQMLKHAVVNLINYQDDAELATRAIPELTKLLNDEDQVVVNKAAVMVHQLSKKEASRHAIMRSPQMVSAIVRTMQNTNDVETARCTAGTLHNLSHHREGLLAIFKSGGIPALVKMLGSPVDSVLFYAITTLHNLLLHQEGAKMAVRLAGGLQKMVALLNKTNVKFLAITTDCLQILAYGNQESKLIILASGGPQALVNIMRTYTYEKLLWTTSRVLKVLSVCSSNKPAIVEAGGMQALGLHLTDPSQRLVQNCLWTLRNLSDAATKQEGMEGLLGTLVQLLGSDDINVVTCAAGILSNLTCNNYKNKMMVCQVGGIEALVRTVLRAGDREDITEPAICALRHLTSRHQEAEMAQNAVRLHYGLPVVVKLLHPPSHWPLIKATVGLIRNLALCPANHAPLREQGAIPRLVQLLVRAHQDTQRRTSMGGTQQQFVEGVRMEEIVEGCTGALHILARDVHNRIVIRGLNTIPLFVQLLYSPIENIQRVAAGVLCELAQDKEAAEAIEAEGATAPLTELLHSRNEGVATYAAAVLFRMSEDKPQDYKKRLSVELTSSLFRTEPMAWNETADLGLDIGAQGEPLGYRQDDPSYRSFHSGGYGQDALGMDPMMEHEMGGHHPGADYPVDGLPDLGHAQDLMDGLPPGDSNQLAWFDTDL

[3] = target: T2, full-length beta-Catenin (Uniprot ID P35222) (Homo sapiens, UniProt P35222); test: Fluorescence polarization IC50 (beta-catenin / 5FAM-TCF4 10-53 competition); format: binding; conditions: fluorescence polarization; read-out: beta-Catenin FP IC50
T2 construct: 10 nM full-length beta-Catenin (Uniprot ID P35222)
T2 sequence (P35222 1-781): T1 sequence (P35222 1-781)

[4] = DLD1 reporter assay, 4%, absolute IC50

SMILES | IC50 [1, 4] [nM] | IC50 ([2]; absolute IC50) [nM] | IC50 [3] [nM] | IC50 ([1]; DLD1 4%) [nM] | IC50 [2] [nM]
CCCC[C@@H]1NC(=O)[C@H](Cc2cccc(C(=O)O)c2)NC(=O)[C@H](CC(=O)O)NC(=O)C2(CCCC=CCCCOC(=O)N3CC[C@@](C(=O)N[C@@H](Cc4ccccc4Cl)C(=O)N[C@@H](Cc4csc5ccccc45)C(=O)N[C@@H](CCC(N)=O)C(N)=O)(C3)NC(=O)[C@H](CC(C)C)NC(=O)[C@H](Cc3ccccc3)NC(=O)[C@H](C)NC1=O)CCCC=CC[C@]1(CCCN1C(C)=O)C(=O)N[C@@H](CC(=O)O)C(=O)N[C@@H](CC(C)(C)C)C(=O)N2 (stereo partly drawn) [I-1685, Ac-PL3-Asp-Npg-B5-Asp-3COOHF-nLeu-Ala-Phe-Leu-PyrS2-2C1F-BztA-Gln-NH2] | 1300 | 3500 | 23 | – | –
CC(=O)N1CCC[C@]12CC=CCCCC1(CCCC=CCCCOC(=O)N3CC[C@@](C(=O)N[C@@H](Cc4ccsc4)C(=O)N[C@@H](Cc4csc5ccccc45)C(=O)N[C@H](C(N)=O)[C@@H](C)O)(C3)NC(=O)[C@H](CC(C)C)NC(=O)[C@H](Cc3ccccc3)NC(=O)[C@H](C)NC(=O)[C@H](C)NC(=O)[C@H](CN(CC(=O)O)CC(F)(F)F)NC(=O)[C@H](CC(=O)O)NC1=O)NC(=O)[C@H](CC(C)(C)C)NC(=O)[C@H](CC(=O)O)NC2=O (stereo partly drawn) [I-1706, Ac-PL3-Asp-Npg-B5-Asp-TfeGA-Ala-Ala-Phe-Leu-PyrS2-3Thi-BztA-Thr-NH2] | 2700 | 4800 | 24 | – | –
CC(=O)NCCCC[C@H](NC(=O)[C@H](Cc1csc2ccccc12)NC(=O)[C@H](Cc1ccsc1)NC(=O)[C@]12CCN(C1)C(=O)OCCCC=CCCCC1(CCCC=CC[C@]3(CCCN3C(C)=O)C(=O)N[C@@H](CC(=O)O)C(=O)N[C@@H](CC(C)(C)C)C(=O)N1)C(=O)N[C@@H](CC(=O)O)C(=O)N[C@@H](CN(CC(=O)O)CC(F)(F)F)C(=O)N[C@@H](C)C(=O)N[C@@H](C)C(=O)N[C@@H](Cc1ccccc1)C(=O)N[C@@H](CC(C)C)C(=O)N2)C(N)=O (stereo partly drawn) [I-1709, Ac-PL3-Asp-Npg-B5-Asp-TfeGA-Ala-Ala-Phe-Leu-PyrS2-3Thi-BztA-AcLys-NH2] | 3900 | 6200 | 14 | – | –
CC(=O)N1CCC[C@]12CC=CCCCC1(CCCC=CCCCOC(=O)N3CC[C@@](C(=O)N[C@@H](Cc4ccsc4)C(=O)N[C@@H](Cc4csc5ccccc45)C(=O)N[C@@H](C)C(N)=O)(C3)NC(=O)[C@H](CC(C)C)NC(=O)[C@H](Cc3ccccc3)NC(=O)[C@H](C)NC(=O)[C@H](C)NC(=O)[C@H](CN(CC(=O)O)CC(F)(F)F)NC(=O)[C@H](CC(=O)O)NC1=O)NC(=O)[C@H](CC(C)(C)C)NC(=O)[C@H](CC(=O)O)NC2=O (stereo partly drawn) [I-1710, Ac-PL3-Asp-Npg-B5-Asp-TfeGA-Ala-Ala-Phe-Leu-PyrS2-3Thi-BztA-Ala-NH2] | 1900 | 3900 | 22 | – | –
CC(=O)N1CCC[C@]12CC=CCCCC1(CCCC=CCCCOC(=O)N3CC[C@@](C(=O)N[C@@H](Cc4ccsc4)C(=O)N[C@@H](Cc4csc5ccccc45)C(=O)N[C@@H](C)C(N)=O)(C3)NC(=O)[C@H](CC(C)C)NC(=O)[C@H](Cc3ccccc3)NC(=O)[C@H](C)NC(=O)C(C)(C)NC(=O)[C@H](Cc3cccc(C(=O)O)c3)NC(=O)[C@H](CC(=O)O)NC1=O)NC(=O)[C@H](CC(C)(C)C)NC(=O)[C@H](CC(=O)O)NC2=O (stereo partly drawn) [I-1920, Ac-PL3-Asp-Npg-B5-Asp-3COOHF-Aib-Ala-Phe-Leu-PyrS2-3Thi-BztA-Ala-NH2] | – | – | 18 | 1200 | 3100
CC(=O)N1CCC[C@]12CC=CCCCC1(CCCC=CCCCOC(=O)N3CC[C@@](C(=O)N[C@@H](Cc4ccsc4)C(=O)N[C@@H](Cc4csc5ccccc45)C(=O)N[C@@H](CC(N)=O)C(=O)N[C@@H](C)C(=O)N[C@@H](C)C(=O)N[C@H](C)C(N)=O)(C3)NC(=O)[C@H](CC(C)C)NC(=O)[C@H](Cc3ccccc3)NC(=O)[C@H](C)NC(=O)[C@H](C)NC(=O)[C@H](Cc3cccc(C(=O)O)c3)NC(=O)[C@H](CC(=O)O)NC1=O)NC(=O)[C@H](CC(C)(C)C)NC(=O)[C@H](CC(=O)O)NC2=O (stereo partly drawn) [I-2047, Ac-PL3-Asp-Npg-B5-Asp-3COOHF-Ala-Ala-Phe-Leu-PyrS2-3Thi-BztA-Asn-Ala-Ala-dAla-NH2] | – | – | 11 | 1300 | 2600

The remaining lines, values ahead:

IC50 [1, 4] [nM] | IC50 ([2]; absolute IC50) [nM] | IC50 [3] [nM] | IC50 ([1]; DLD1 4%) [nM] | IC50 [2] [nM] | SMILES
2800 | 4500 | 13 | – | – | CC(=O)N1CCC[C@]12CC=CCCCC1(CCCC=CCCCOC(=O)N3CC[C@@](C(=O)N[C@@H](Cc4ccccc4C(F)(F)F)C(=O)N[C@@H](Cc4csc5ccccc45)C(=O)N[C@@H](CCCCNC(C)C)C(N)=O)(C3)NC(=O)[C@H](CC(C)C)NC(=O)[C@H](Cc3ccccc3)NC(=O)[C@H](C)NC(=O)[C@H](C)NC(=O)[C@H](Cc3cccc(C(=O)O)c3)NC(=O)[C@H](CC(=O)O)NC1=O)NC(=O)[C@H](CC(C)(C)C)NC(=O)[C@H](CC(=O)O)NC2=O (stereo partly drawn) [I-1616, Ac-PL3-Asp-Npg-B5-Asp-3COOHF-Ala-Ala-Phe-Leu-PyrS2-2F3MeF-BztA-iPrLys-NH2]
2700 | 4300 | 12 | – | – | CC(=O)N1CCC[C@]12CC=CCCCC1(CCCC=CCCCOC(=O)N3CC[C@@](C(=O)N[C@@H](Cc4ccsc4)C(=O)N[C@@H](Cc4csc5ccccc45)C(=O)N[C@@H](CCC(N)=O)C(N)=O)(C3)NC(=O)[C@H](CC(C)C)NC(=O)[C@H](Cc3ccccc3)NC(=O)[C@H](C)NC(=O)[C@H](C)NC(=O)[C@H](CN(CCCC(F)(F)F)CC(=O)O)NC(=O)[C@H](CC(=O)O)NC1=O)NC(=O)[C@H](CC(C)(C)C)NC(=O)[C@H](CC(=O)O)NC2=O (stereo partly drawn) [I-1629, Ac-PL3-Asp-Npg-B5-Asp-[Tfb]GA-Ala-Ala-Phe-Leu-PyrS2-3Thi-BztA-Gln-NH2]
2600 | 6500 | 10 | – | – | CC(=O)N1CCC[C@]12CC=CCCCC1(CCCC=CCCCOC(=O)N3CC[C@@](C(=O)N[C@@H](Cc4ccsc4)C(=O)N[C@@H](Cc4csc5ccccc45)C(=O)N[C@@H](CCC(N)=O)C(N)=O)(C3)NC(=O)[C@H](CC(C)C)NC(=O)[C@H](Cc3ccccc3)NC(=O)[C@H](C)NC(=O)[C@H](C)NC(=O)[C@H](CN(CC(=O)O)Cc3c(F)c(F)c(F)c(F)c3F)NC(=O)[C@H](CC(=O)O)NC1=O)NC(=O)[C@H](CC(C)(C)C)NC(=O)[C@H](CC(=O)O)NC2=O (stereo partly drawn) [I-1632, Ac-PL3-Asp-Npg-B5-Asp-[Pfbn]GA-Ala-Ala-Phe-Leu-PyrS2-3Thi-BztA-Gln-NH2]
3400 | 4500 | 13 | – | – | CC(=O)N1CCC[C@]12CC=CCCCC1(CCCC=CCCCOC(=O)N3CC[C@@](C(=O)N[C@@H](Cc4ccccc4Cl)C(=O)N[C@@H](Cc4csc5ccccc45)C(=O)N[C@@H](CCC(N)=O)C(N)=O)(C3)NC(=O)[C@H](CC(C)C)NC(=O)[C@H](Cc3ccccc3)NC(=O)[C@H](C)NC(=O)CNC(=O)[C@H](Cc3cccc(C(=O)O)c3)NC(=O)[C@H](CC(=O)O)NC1=O)NC(=O)[C@H](CC(C)(C)C)NC(=O)[C@H](CC(=O)O)NC2=O (stereo partly drawn) [I-1684, Ac-PL3-Asp-Npg-B5-Asp-3COOHF-Gly-Ala-Phe-Leu-PyrS2-2C1F-BztA-Gln-NH2]
– | – | 5 | 6500 | 4000 | CC(=O)N1CCC[C@]12CC=CCCCC1(CCCC=CCCCOC(=O)N3CC[C@@](C(=O)N[C@@H](Cc4ccsc4)C(=O)N[C@@H](Cc4csc5ccccc45)C(=O)N[C@@H](C)C(N)=O)(C3)NC(=O)[C@H](CC(C)C)NC(=O)[C@H](Cc3ccccc3)NC(=O)[C@H](C)NC(=O)[C@H](CCC(N)=O)NC(=O)[C@H](Cc3cccc(C(=O)O)c3)NC(=O)[C@H](CC(=O)O)NC1=O)NC(=O)[C@H](CC(C)(C)C)NC(=O)[C@H](CC(=O)O)NC2=O (stereo partly drawn) [I-1918, Ac-PL3-Asp-Npg-B5-Asp-3COOHF-Gln-Ala-Phe-Leu-PyrS2-3Thi-BztA-Ala-NH2]
– | – | 13 | 1800 | 1900 | CC(=O)N1CCC[C@]12CC=CCCCC1(CCCC=CCCCOC(=O)N3CC[C@@](C(=O)N[C@@H](Cc4ccsc4)C(=O)N[C@@H](Cc4csc5ccccc45)C(=O)N[C@@H](CCS(C)(=O)=O)C(N)=O)(C3)NC(=O)[C@H](CC(C)C)NC(=O)[C@H](Cc3ccccc3)NC(=O)[C@H](C)NC(=O)[C@H](C)NC(=O)[C@H](Cc3cccc(C(=O)O)c3)NC(=O)[C@H](CC(=O)O)NC1=O)NC(=O)[C@H](CC(C)(C)C)NC(=O)[C@H](CC(=O)O)NC2=O (stereo partly drawn) [I-2061, Ac-PL3-Asp-Npg-B5-Asp-3COOHF-Ala-Ala-Phe-Leu-PyrS2-3Thi-BztA-Met2O-NH2]
